The record followed here is PubChem BioAssay AID977614 (Broad Institute, 2014).

One may read the AC50 as the midpoint of the concentration-response curve, whichever way the signal moves.

The assay has as its system L. donovani amastigotes in THP-1 macrophages, DAPI imaging, 72 h. In words: antileishmanial activity in infected macrophages – imaging, THP-1 host macrophages, single concentration (AID 977614).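 Further: signal is the parasite per host cell ratio from DAPI stained kinetoplasts and nuclei.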

The source made the active and inactive calls.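 How the source made its calls: active means parasite count per well reduced by over 3 SD from the mean, with host cell number above 80% of untreated; inactive means the rest.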

Consider `O=C(Nc1cccc(F)c1)N1C[C@@H]2[C@H](c3ccccc31)[C@H](CO)N2C(=O)Cc1ccccn1`, for which the AC50 was > 10 µM (inactive).
In the case of `CCC(=O)N1C[C@@H]2[C@H](c3ccccc31)[C@@H](CO)N2C(=O)CC1CC1` it was > 10 µM (inactive); in that of `C[C@H]1CN([C@@H](C)CO)C(=O)CCCn2cc(nn2)CO[C@H]1CN(C)Cc1ccccc1`, > 10 µM (inactive).
`CCN(C[C@@H]1[C@@H](c2ccccc2)[C@@H](CO)N1CC1CC1)C(=O)c1ccccn1`: the AC50 was > 10 µM (inactive).
In the case of `C[C@H](CO)N1C[C@H](C)[C@@H](CN(C)C(=O)c2ccc(N3CCN(C)CC3)cc2)OCc2cnnn2CCCC1=O` it was > 10 µM (inactive); in that of `C[C@H](CO)N1C[C@H](C)[C@H](CN(C)Cc2ccccc2C(=O)O)OCc2cnnn2CCCC1=O`, > 10 µM (inactive).
Consider `CCCNC(=O)N1C[C@@H]2[C@H](c3ccccc31)[C@@H](CO)N2Cc1cccc(OC)c1`, for which the AC50 is > 10 µM (inactive).
In the case of `C/C=C/c1ccc([C@@H]2[C@H](CO)N[C@H]2CNS(=O)(=O)c2ccccc2)cc1` it was > 10 µM (inactive); in that of `O=C(Cc1cccnc1)N1[C@H](CO)[C@H](c2ccccc2)[C@H]1CNCC1CCC1`, > 10 µM (inactive); in that of `C[C@@H]1CN([C@H](C)CO)C(=O)CCCn2cc(nn2)CO[C@H]1CN(C)C(=O)Nc1ccc2c(c1)OCO2`, > 10 µM (inactive).
In the case of `C[C@@H]1CN([C@H](C)CO)C(=O)CCCn2nncc2CO[C@H]1CN(C)Cc1ccc2cccnc2c1` it was > 10 µM (inactive).
In the case of `COc1ccc(C(=O)N2C[C@@H]3[C@H](c4ccccc42)[C@@H](CO)N3Cc2ccccc2Cl)cc1` it was > 10 µM (inactive); in that of `Cc1noc(C)c1S(=O)(=O)N(C)C[C@H]1OCc2cnnn2CCCC(=O)N([C@H](C)CO)C[C@H]1C`, > 10 µM (inactive); in that of `C[C@H]1CN([C@@H](C)CO)C(=O)CCCn2cc(nn2)CO[C@@H]1CN(C)S(=O)(=O)c1ccc(-n2cccn2)cc1`, > 10 µM (inactive).
In the case of `CCC(=O)N1C[C@@H]2[C@H](c3ccccc31)[C@H](CO)N2C(=O)CC1CC1`, the AC50 is > 10 µM (inactive).
In the case of `O=C(C1CCC1)N1C[C@@H]2[C@H](c3ccccc31)[C@H](CO)N2C(=O)Nc1cccc(F)c1` it was > 10 µM (inactive); in that of `O=C(c1ccccc1F)N1C[C@H]2[C@@H](c3ccccc31)[C@@H](CO)N2Cc1ccc2c(c1)OCO2`, > 10 µM (inactive); in that of `CC(=O)N1[C@H](CO)[C@H](c2ccccc2)[C@@H]1CN(CC(C)C)C(=O)c1ccccn1`, > 10 µM (inactive).
Take `C[C@H](CO)N1C[C@H](C)[C@@H](CN(C)S(=O)(=O)c2ccc(-n3cccn3)cc2)OCc2cn(nn2)CCCC1=O`: the AC50 was > 10 µM (inactive).
In the case of `CN1[C@H](CO)[C@@H]2c3ccccc3N(C(=O)C3CCCCC3)C[C@@H]21` it was > 10 µM (inactive).
As to `CC(=O)N1[C@H](CO)[C@H]2c3ccccc3N(C(=O)c3ccc(F)cc3)C[C@H]21`, the AC50 was > 10 µM (inactive).
Take `O=S(=O)(c1ccccc1)N1[C@@H](CO)[C@@H]2c3ccccc3NC[C@@H]21`: the AC50 was > 10 µM (inactive).
In the case of `Cc1noc(C)c1NC(=O)N(C)C[C@@H]1OCc2cn(nn2)CCCC(=O)N([C@@H](C)CO)C[C@H]1C` it was > 10 µM (inactive); in that of `CC(=O)N1[C@H](CO)[C@@H](c2ccccc2)[C@@H]1CN(CC1CCC1)C(=O)CN(C)C`, > 10 µM (inactive); in that of `O=C(Nc1ccc(F)cc1)N1C[C@@H]2[C@H](c3ccccc31)[C@@H](CO)N2Cc1ccccc1Cl`, > 10 µM (inactive).
As for `CN(C[C@H]1N[C@@H](CO)[C@@H]1c1ccc(C2=CCCC2)cc1)C(=O)c1cccc(F)c1`, the AC50 is > 10 µM (inactive).
In the case of `COc1cccc(NC(=O)N2[C@H](CO)[C@H](c3ccccc3)[C@H]2CNCC(C)C)c1` it was > 10 µM (inactive); in that of `O=C(CC(F)(F)F)N1C[C@H]2[C@@H](c3ccccc31)[C@@H](CO)N2C(=O)C1CCCCC1`, > 10 µM (inactive); in that of `C[C@H]1CN([C@@H](C)CO)C(=O)CCCn2nncc2CO[C@@H]1CN(C)C(=O)Nc1ccc(-c2cccs2)cc1`, > 10 µM (inactive).
In the case of `C[C@@H]1CN([C@H](C)CO)C(=O)CCCn2nncc2CO[C@@H]1CN(C)C(=O)Oc1cccc2ccccc12` it was > 10 µM (inactive); in that of `COc1ccc(CN2[C@@H]3CN(C(=O)NC(C)C)c4ccccc4[C@@H]3[C@@H]2CO)cc1`, > 10 µM (inactive).
In the case of `O=C(CC(F)(F)F)N1C[C@@H]2[C@H](c3ccccc31)[C@H](CO)N2Cc1cccnc1` it was > 10 µM (inactive); in that of `COCC(=O)N1[C@H](CNC(=O)c2ccccn2)[C@@H](c2ccccc2)[C@@H]1CO`, > 10 µM (inactive); in that of `C/C=C/c1ccc([C@H]2[C@@H](CO)N(S(C)(=O)=O)[C@@H]2CN(C(C)=O)C(C)C)cc1`, > 10 µM (inactive).
As for `C[C@H](CO)N1C[C@H](C)[C@@H](CN(C)S(=O)(=O)c2ccc3c(c2)OCCCO3)OCc2cnnn2CCCC1=O`, the AC50 was > 10 µM (inactive).
Take `CC(=O)N1[C@H](CNC(=O)C2CC2)[C@H](c2ccc(-c3ccccc3)cc2)[C@@H]1CO`: the AC50 is > 10 µM (inactive).
For the compound `O=C(Cc1ccccn1)N1[C@@H](CO)[C@@H]2c3ccccc3NC[C@@H]21`, the AC50 was > 10 µM (inactive).
With `C[C@@H]1CN([C@H](C)CO)C(=O)CCCn2nncc2CO[C@@H]1CN(C)C(=O)c1cc(-c2ccccc2)on1`, the AC50 was > 10 µM (inactive).
In the case of `C[C@H](CO)N1C[C@H](C)[C@H](CN(C)Cc2cccc(C(F)(F)F)c2)OCc2cnnn2CCCC1=O`, the AC50 is > 10 µM (inactive).
In the case of `CN(C[C@H]1[C@@H](c2ccccc2)[C@H](CO)N1Cc1ccccn1)S(C)(=O)=O` it was > 10 µM (inactive).
Take `O=C(NC[C@H]1[C@@H](c2ccccc2)[C@@H](CO)N1C(=O)C1CCC1)NC1CCCC1`: the AC50 was > 10 µM (inactive).
For the compound `O=C(NC[C@H]1[C@@H](c2ccccc2)[C@H](CO)N1C(=O)C1CCC1)NC1CCCC1`, the AC50 is > 10 µM (inactive).
Take `C[C@@H]1CN([C@@H](C)CO)C(=O)CCCn2nncc2CO[C@H]1CN(C)Cc1ccc(C(=O)Nc2ccccc2N)cc1`: the AC50 was > 10 µM (inactive).
As for `O=C(NC[C@H]1[C@H](c2ccccc2)[C@H](CO)N1C(=O)C1CCC1)NC1CCCC1`, the AC50 is > 10 µM (inactive).
In the case of `CCC(=O)N1C[C@H]2[C@@H](c3ccccc31)[C@H](CO)N2Cc1ccc(F)cc1` it was > 10 µM (inactive).
In the case of `CC(=O)N1[C@H](CN(CC(C)C)C(=O)c2ccccn2)[C@H](c2ccccc2)[C@@H]1CO` it was > 10 µM (inactive); in that of `C[C@H]1CN([C@@H](C)CO)C(=O)CCCn2nncc2CO[C@H]1CN(C)C(=O)c1ccc2ccn(C)c2c1`, > 10 µM (inactive).
In the case of `O=C(c1ccncc1)N1C[C@@H]2[C@H](c3ccccc31)[C@H](CO)N2Cc1ccccc1F` it was > 10 µM (inactive).
As for `C[C@@H]1CN([C@@H](C)CO)C(=O)CCCn2nncc2CO[C@@H]1CN(C)C(=O)CCC(F)(F)F`, the AC50 was > 10 µM (inactive).
In the case of `C[C@@H]1CN([C@H](C)CO)C(=O)CCCn2nncc2CO[C@H]1CN(C)C(=O)c1ccc(N2CCN(C)CC2)cc1` it was > 10 µM (inactive); in that of `C[C@@H]1CN([C@H](C)CO)C(=O)CCCn2nncc2CO[C@@H]1CN(C)Cc1ccc2cccnc2c1`, > 10 µM (inactive).
For the compound `C[C@H]1CN([C@@H](C)CO)C(=O)CCCn2cc(nn2)CO[C@H]1CN(C)C(=O)Nc1ccc2c(c1)OCO2`, the AC50 was > 10 µM (inactive).
As for `C/C=C/c1ccc([C@H]2[C@@H](CO)N[C@@H]2CN(Cc2cccnc2)C(=O)C2CC2)cc1`, the AC50 was > 10 µM (inactive).
In the case of `O=C(CC(F)(F)F)N1C[C@H]2[C@@H](c3ccccc31)[C@@H](CO)N2C(=O)c1ccncc1` it was > 10 µM (inactive); in that of `COc1ccc(NC(=O)N(C)C[C@H]2OCc3cnnn3CCCC(=O)N([C@@H](C)CO)C[C@H]2C)c(OC)c1`, > 10 µM (inactive); in that of `C[C@H](CO)N1C[C@H](C)[C@H](CN(C)C(=O)Nc2ccnc(N3CCOCC3)c2)OCc2cnnn2CCCC1=O`, > 10 µM (inactive).
In the case of `CC(C)NC(=O)N1[C@H](CNC(=O)CN(C)C)[C@@H](c2ccccc2)[C@@H]1CO` it was > 10 µM (inactive); in that of `C[C@@H]1CN([C@@H](C)CO)C(=O)CCCn2cc(nn2)CO[C@H]1CN(C)C(=O)CCC(F)(F)F`, > 10 µM (inactive).
In the case of `O=C(C1CCOCC1)N1C[C@H]2[C@@H](c3ccccc31)[C@H](CO)N2C(=O)Nc1ccccc1F` it was > 10 µM (inactive); in that of `CC(=O)N1[C@H](CO)[C@H](c2ccccc2)[C@@H]1CNC(=O)CN1CCOCC1`, > 10 µM (inactive); in that of `CC(=O)N1[C@H](CNC(=O)CN(C)C)[C@H](c2ccc(C3=CCCCC3)cc2)[C@@H]1CO`, > 10 µM (inactive).
Consider `CNC[C@H]1OCc2cnnn2CCCC(=O)N([C@@H](C)CO)C[C@H]1C`, for which the AC50 is > 10 µM (inactive).
In the case of `O=C(c1ccc2c(c1)OCO2)N1C[C@@H]2[C@H](c3ccccc31)[C@@H](CO)N2Cc1cccnc1` it was > 10 µM (inactive); in that of `C[C@@H]1CN([C@@H](C)CO)C(=O)CCCn2nncc2CO[C@H]1CN(C)Cc1ccc2c(c1)OCCN2C`, > 10 µM (inactive).
In the case of `O=C(CC(F)(F)F)N1C[C@H]2[C@@H](c3ccccc31)[C@@H](CO)N2Cc1cccnc1` it was > 10 µM (inactive); in that of `COc1ccc(CN(C)C[C@@H]2OCc3cnnn3CCCC(=O)N([C@H](C)CO)C[C@H]2C)cc1`, > 10 µM (inactive).
In the case of `C[C@H]1CN([C@@H](C)CO)C(=O)CCCn2nncc2CO[C@@H]1CN(C)S(=O)(=O)c1ccc(Oc2ccccc2)nc1` it was > 10 µM (inactive); in that of `C[C@@H]1CN([C@H](C)CO)C(=O)CCCn2nncc2CO[C@H]1CN(C)Cc1ccc2c(c1)OCCN2C`, > 10 µM (inactive).
